{
  "source": "patent US8828453B2",
  "about": "“Herbal-based compositions for alleviating symptoms associated with autism” (priority 2010, dated 2014)",
  "origin": "cited, not measured here",
  "tested_on": "newborn murine brain",
  "data": [
    {"smiles": "CCCCC/C=C\\C/C=C\\C/C=C\\C/C=C\\CCCC(=O)NCCO", "note": "[anandamide]", "values": [
      {"measurement": "protection against excitotoxic damage", "value": "protected the newborn murine brain against excitotoxic damage"}
    ]}
  ]
}
